Counter-ions that a name gives are not always drawn.
Key:
[1] = tested on: mice; assay: phenyl-benzoquinone (PBQ) writhing test; format: in vivo, mouse
Experimental: (§1) Two compounds, N-(4-aminophenethyl)-1,2,3,4-tetrahydro-6,7-dimethoxy-1-methylisoquinoline(Compound No. 1) and its N-methyl derivative (Compound No. 2) were tested for analgesic activity in rats and mice by the oral and subcutaneous routes. In addition, gross behavioral and toxicological effects (as well as general pharmacological profiling) were evaluated in mice by the intraperitoneal route of administration.
In mice, two test procedures designed to detect analgesic activity were used: the phenyl-benzoquinone (PBQ) writhing test and the hot plate test. […] […] In the hot plate test, subjects were placed on the surface of a hot copper plate maintained at 54.5°±1.0° C. For the oral studies drugs were injected 30 minutes before testing on the hot plate. Drugged animals whose reaction time (consisting of paw licking or jumping behavior) was equal to or greater than 2 seconds over the average of an untreated control group of mice were considered to be protected from the pain.

[2] = tested on: mice; assay: hot plate test in mice; format: in vivo; conditions: po, 0.5 h; mouse, p.o., 30 minutes before testing, 54.5°±1.0° C.; read-out: ED50 (95% C.L.), Mouse Hot Plate
Experimental: as §1
In mice, two test procedures designed to detect analgesic activity were used: the phenyl-benzoquinone (PBQ) writhing test and the hot plate test. In the PBQ procedure, the drugs were injected 15 minutes before an intraperitoneal injection of PBQ was made for the subcutaneous studies and 30 minutes before the PBQ for the oral studies. […] In the hot plate test, subjects were placed on the surface of a hot copper plate maintained at 54.5°±1.0° C. For the oral studies drugs were injected 30 minutes before testing on the hot plate. Drugged animals whose reaction time (consisting of paw licking or jumping behavior) was equal to or greater than 2 seconds over the average of an untreated control group of mice were considered to be protected from the pain.

[3] = tested on: rats; assay: tail flick test in rats; format: in vivo; conditions: po, 1 h; rat, p.o., 60 minute post dose interval; read-out: ED50 (95% C.L.), Rat Tail Flick
Experimental: as §1
In rats, two procedures designed to detect anlgesic acitivity were used: the hot plate test and the tail flick test. In the hot plate test, rats were placed on the surface of a copper plate maintained at 54.5°±1.0° C. and their response latency (again consisting of paw licking or jumping behavior) determined at 60 minutes and again at 30 minutes before drug injection. These response times were again determined 30 and 60 minutes after drug injection and animals whose response latencies were equal to or greater than three seconds over the second pre-treatment trial (i.e., the one done 30 minutes before dosing) were considered protected from the pain. In the tail flick procedure, a high intensity light beam was focused on the blackened portion of the rat's tail and the reaction time, i.e., latency to move its tail, was measured before and 15, 30, 45, 60, 90 and 120 minutes after drug administration. […]

[4] = tested on: rats; assay: hot plate test in rats; format: in vivo; conditions: 1 h, rat, 60 minute post dose interval, 54.5°±1.0° C., read-out: ED50 (95% C.L.), Rat Hot Plate
Experimental: as §1
In rats, two procedures designed to detect anlgesic acitivity were used: the hot plate test and the tail flick test. In the hot plate test, rats were placed on the surface of a copper plate maintained at 54.5°±1.0° C. and their response latency (again consisting of paw licking or jumping behavior) determined at 60 minutes and again at 30 minutes before drug injection. These response times were again determined 30 and 60 minutes after drug injection and animals whose response latencies were equal to or greater than three seconds over the second pre-treatment trial (i.e., the one done 30 minutes before dosing) were considered protected from the pain. In the tail flick procedure, a high intensity light beam was focused on the blackened portion of the rat's tail and the reaction time, i.e., latency to move its tail, was measured before and 15, 30, 45, 60, 90 and 120 minutes after drug administration. A subject was considered protected from the pain stimulus when Po ≥Pr +Pr 2 where Po is the individual post treatment value and Pr, the pretreatment value. The ED50's reported below for both of these procedures were calculated from values obtained at the 60 minute post dose interval.

[5] = literature, Medicinal Chemistry, Vol. 5; cited from earlier work
[6] = sc, 0.25 h, mouse PBQ assay, s.c., 15 min post dose, table 6, read-out: Analgesic activity, s.c. ED50 at 15 min post dose
[7] = sc, 0.75 h, mouse PBQ assay, s.c., 45 min post dose, table 6, read-out: Analgesic activity, s.c. ED50 at 45 min post dose
[8] = po, 0.5 h, mouse, p.o., drug 30 minutes before PBQ, read-out: ED50 (95% C.L.), Mouse PBQ
[9] = sc, 0.25 h, mouse, s.c., drug 15 minutes before PBQ, table 5, read-out: ED50 (95% C.L.), Mouse PBQ

CC1c2cc(O)c(O)cc2CCN1CCc1ccc(N)cc1 (stereo not drawn) [Example 15, N-(4-Aminophenethyl)-1,2,3,4-tetrahydro-6,7-dihydroxy-1-methylisoquinolinedihydrobromide]
ED50 [1, 6]: 25.4 mg/kg
ED50 [1, 7]: ~100 mg/kg

COc1cc2c(cc1OC)C(C)N(CCc1cccc(N)c1)CC2.Cl.Cl (stereo not drawn) [Example 3, N-(3-Aminophenethyl)-1,2,3,4-tetrahydro-6,7-dimethoxy-1-methylisoquinoline dihydrochloride]
ED50 [1, 6]: 11.9 mg/kg
ED50 [1, 7]: 20.2 mg/kg

CNc1ccc(CCN2CCc3cc(OC)c(OC)cc3C2C)cc1.Cl (stereo not drawn) [Example 2, N-(4-Methylaminophenethyl)-1,2,3,4-tetrahydro-6,7-dimethoxy-1-methylisoquinoline hydrochloride]
ED50 [1, 8]: 42.8 mg/kg
ED50 [1, 9]: 5.2 mg/kg
ED50 [2]: 31.7 mg/kg
ED50 [3]: 30 to 60 mg/kg
ED50 ([4]; po, p.o.): ~17.8 mg/kg

COc1cc2c(cc1OC)C(C)N(CCc1ccccc1N)CC2 (stereo not drawn) [Example 4, N-(2-Aminophenethyl-1,2,3,4-tetrahydro-6,7-dimethoxy-1-methylisoquinolinedihydrochloride]
ED50 [1, 6]: 10.7 mg/kg
ED50 [1, 7]: 34 mg/kg

COc1cc2c(cc1OC)C(C)N(CCc1ccc(Cl)cc1)CC2 (stereo not drawn)
analgesic properties / activity reported by Brossi et al [5]: reported not to exhibit analgesic properties

COc1cc2c(cc1O)CCN(CCc1ccc(N)cc1)C2C.Cl.Cl (stereo not drawn) [Example 14, N-(4-Aminophenethyl)-1,2,3,4-tetrahydro-6-hydroxy-7-methoxy-1-methylisoquinoline dihydrochloride]
ED50 [1, 6]: 7.3 mg/kg
ED50 [1, 7]: 25.8 mg/kg

COc1ccc2c(c1)CCN(CCc1ccc(NC=O)cc1)C2C (stereo not drawn) [Example 11 (N--Formyl), N-(4-Formamidophenethyl)-1,2,3,4-tetrahydro-6-methoxy-1-methylisoquinoline]
ED50 [1, 6]: 3.5 mg/kg
ED50 [1, 7]: 15.3 mg/kg

COc1cc2c(cc1OC)CN(CCc1ccc(O)cc1)CC2.Cl [Example 13, N-(4-Hydroxyphenethyl)-1,2,3,4-tetrahydro-6,7-dimethoxyisoquinoline hydrochloride]
ED50 [1, 6]: 2.8 mg/kg
ED50 [1, 7]: 22.4 mg/kg

CNc1ccc(CCN2CCc3cc(OC)ccc3C2C)cc1.Cl (stereo not drawn) [Example 11, N-(4-Methylaminophenethyl)-1,2,3,4-tetrahydro-6-methoxy-1-methylisoquinoline hydrochloride]
ED50 [1, 6]: 6 mg/kg
ED50 [1, 7]: 13.8 mg/kg

COc1cc2c(cc1OC)C(C)N(CCc1ccc(N(C)C)cc1)CC2.Cl.Cl (stereo not drawn) [Example 5, N-(4-Dimethylaminophenethyl)-1,2,3,4-tetrahydro-6,7-dimethoxy-1-methylisoquinoline dihydrochloride]
ED50 [1, 6]: 27.3 mg/kg
ED50 [1, 7]: 26.7 mg/kg

COc1cc2c(cc1OC)CN(CCc1ccc(N)cc1)CC2.Cl.Cl [Example 8, N-(4-Aminophenethyl)-1,2,3,4-tetrahydro-6,7-dimethoxyisoquinoline dihydrochloride]
ED50 [1, 6]: 2.9 mg/kg
ED50 [1, 7]: 16.2 mg/kg

COc1cc2c(cc1OC)C(C)N(CCc1ccc(N)cc1)CC2 (stereo not drawn) [Example 1, N-(4-aminophenethyl)-1,2,3,4-tetrahydro-6,7-dimethoxy-1-methylisoquinoline]
ED50 [1, 8]: 48.5 mg/kg
ED50 [1, 6]: 7 mg/kg
ED50 [1, 9]: 3.7 mg/kg
ED50 [1, 7]: 24.2 mg/kg
ED50 [2]: 25.7 mg/kg
ED50 [3]: ~31.6 mg/kg
ED50 ([4]; po, p.o.): 30 to 60 mg/kg
ED50 ([4]; sc, s.c.): 35.7 mg/kg

COc1ccc2c(c1)CCN(CCc1ccc(N)cc1)C2C.Cl.Cl (stereo not drawn) [Example 10, N-(4-Aminophenethyl)-1,2,3,4-tetrahydro-6-methoxy-1-methyl-isoquinoline dihydrochloride]
ED50 [1, 6]: 6.5 mg/kg
ED50 [1, 7]: 11.8 mg/kg

COc1cc2c(cc1OC)C(C)N(CCc1ccc(O)cc1)CC2.Cl (stereo not drawn) [Example 12, N-(4-Hydroxyphenethyl)-1,2,3,4-tetrahydro-6,7-dimethoxy-1-methylisoquinoline hydrochloride]
ED50 [1, 6]: 5.8 mg/kg
ED50 [1, 7]: 10 to 31.6 mg/kg

COc1ccc2c(c1)CCN(CCc1ccc([N+](=O)[O-])cc1)C2C.Cl.Cl (stereo not drawn) [Example 9, N-(4-Nitrophenethyl)-1,2,3,4-tetrahydro-6-methoxy-1-methylisoquinoline dihydrochloride]
ED50 [1, 6]: 10.4 mg/kg
ED50 [1, 7]: 16.4 mg/kg

COc1cc2c(cc1OC)CN(CCc1ccc([N+](=O)[O-])cc1)CC2.Cl [Example 7, N-(4-Nitrophenethyl)-1,2,3,4-tetrahydro-6,7-dimethoxyisoquinoline hydrochloride]
ED50 [1, 6]: 9 mg/kg
ED50 [1, 7]: 34 mg/kg

COc1cc2c(cc1OC)C(C)N(CCc1ccc(NC(C)=O)cc1)CC2.Cl (stereo not drawn) [Example 6, N-(4-Acetamidophenethyl)-1,2,3,4-tetrahydro-6,7-dimethoxy-1-methylisoquinoline hydrochloride]
ED50 [1, 6]: 21 mg/kg
ED50 [1, 7]: 31.6 to 56.2 mg/kg

— patent US4766131A, “2-amino (or hydroxy) phenethyl-1,2,3,4-tetrahydroisoquinolines as analgesics” (Pennwalt Corporation, priority 1986, dated 1988)
